Measured values taken from patent publication US8039501B2, “Synephrine derivatives useful as anti-inflammatory agents” (Universiteit Gent, priority 2005, dated 2011).
“And” between values parts separate entries of the source, which are not always exact repeats. Equal entries are not always repeated.

Experiments:
bfl1 gene = assay: RNase protection analysis of bfl1 gene in MCF7 cells; format: cell-based, human; conditions: 10 μM pre-treated 2 hours, TNF, FIG. 9
Procedure: In a first specific gene expression experiment, RNAse protection analysis on the bfl1 gene, coding for BCL2-related protein A1 that has anti-apoptotic activity. FIG. 9 illustrates the results of the RNAse protection analysis. Cells were pre-treated with CpdA (10 μM) and DEX (1 μM) for 2 hours before TNF induction or non-induction for a total period of 8 hours. Total RNA was recovered (see hereunder for the total RNA extraction protocol) and an RNA protection Assay (hereinafter referred to as RPA) was performed. Transcripts were quantified by autoradiography followed by densiometry.
For the total RNA extraction, 10^5 cell were homogenized in 1 ml of TRIzol Reagent (GIBCO BRL), incubated 5 minutes at room temperature; then added 200 μl chloroform, vortexed 15 seconds. Mix was incubated on ice for 5 minutes. […]
RNase Protection Assay (Pharmingen) was used for the detection and quantitation of A1/bfl mRNA species. […] The pelleted RNA was re-suspended in 6 μl of gel loading buffer, incubated at 95° C. for 5 minutes, quickly quenched on ice and analyzed by electrophoresis on 6% polyacrylamide/8M urea gels. Visualization and quantitation of radioactive bands was carried out by a Phosphorlmager and scanned using a bioimaging analyzer (Personal Molecular Imager® FX Bio-Rad). Densitometry analysis of autoradiograms was performed using Quantity One (Bio-Rad). […]

B-CLL cells = assay: Annexin V/PI flow cytometric analysis of apoptosis in ex-vivo cultured B-CLL cells; format: cell-based, human; conditions: 24 hours
Procedure: Blood samples were obtained from B-CLL patients after informed consent according to institutional guidelines. CLL lymphocytes were isolated using Lymphoprep (Nycomed Pharma, Denmark) and re-suspended at a final concentration of 10−30×10^6 cells/ml in RPMI 1640 medium, supplemented with 10% heat-inactivated fetal bovine serum (FBS) (Greiner Bio-one, Wemmel, Belgium), 100 IU/ml penicillin, 100 μg/ml streptomycin, and 0.56 μg/mL fungizone (Gibco BRL, Merelbeke, Belgium). B-CLL cells were cultured in Dulbecco's Modified Eagle Medium (DMEM) (Gibco, Invitrogen Inc.) containing 10% FBS (Gibco, Invitrogen Inc.). For flow cytometric analysis of apoptosis, B-CLL cells were treated with the different compounds for 24 hours, 3×10^5 cells were removed from the culture medium, washed twice with cold PBS, and double stained with annexin V-fluorescein isothiocyanate (FITC) and propidium iodide (PI; Beckman Coulter, Miami, Fla.) in Annexin binding buffer, followed by analysis on a FC500PTM (Beckman Coulter, Nyon, Switzerland) flow cytometer. Flow cytometric data were analyzed using Cytomixs RXP software (Beckman Coulter, Nyon, Switzerland). To avoid non-specific fluorescence from dead cells, live cells were gated using forward and side scatter.
One of the early signs of apoptosis is the translocation of the membrane phospholipid phosphatidylserine from the cytoplasmic interface to the extracellular surface. Annexin V has a high affinity for the phospatidylserine-containing phospholipid bilayers. […] As the plasma membrane becomes increasingly permeable during the later stages of apoptosis, the DNA-binding dye PI can readily move across the cell membrane and bind to cellular DNA, providing a means to detect the loss of membrane integrity through mechanisms including necrosis. Three different cell populations can be observed in cells double-stained with AnnV-FITC and PI. […] Cells that stain with Ann V only are early apoptotic cells. And cells that stain with both AnnV and PI are late apoptotic/necrotic cells. The percentage of AnnV-positive B-CLL cells in the lymphocyte gate were measured by FACS and results were expressed as % apoptotic cells, i.e. sum of early apoptotic (AnnV+, PI−), and late apoptotic/dead cells (AnnV+, PI+). The percent of living cells was normalized to 100% living cells incubated in control medium with 0.1% EtOH. All measurements were made in duplicate and averaged.

MCF7 breast cancer cells = conditions: 10^−5 M
Procedure: In further experiments, nylon arrayfilter hybridization experiments were performed. cDNA array analyses were carried out according to the instructions of the manufacturer (SuperArray Simplicity GEArray™ KIT) on the cDNA arrays cancer pathway finder and stress and toxicity array. Total RNA, obtained by the protocol as described herein above, was used as a template for [α−^33P]-cDNA probe synthesis using the following steps:
A second array hybridization experiment was performed on Human Stress and Toxicity Pathway Finder GEarray Q series. The same protocol was followed as for the array hybridization experiment on the Human Cancer Pathway Finder described herein above.

Question: For `CNCC(Cl)c1ccc(OC(C)=O)cc1.Cl` (stereo not drawn) [CpdA, 2-(4-acetoxyphenyl)-2-chloro-N-methyl-ethylammonium chloride], which “Transcription of bfl1 gene (RNase protection)” value (bfl1 gene) is on record?
Answer: Its value is “inhibits transcription of the prosurvival gene A”.

Question: And the “% apoptotic cells, CLL patient 1” value (B-CLL cells; 10^−6M)?
Answer: Its value is 43%.

Question: What about the “% apoptotic cells, CLL patient 2” value (B-CLL cells; 10^−6M) of the same molecule?
Answer: Its value is 54%.

Question: What about the “Apoptosis in cells from 2 different CLL patients” value (B-CLL cells; 10^−7M) of the same molecule?
Answer: Its value is 40% and 55%.

Question: What about the “Gene response of CRYAB, DNAJA1, pcna, mdm2” value (MCF7 breast cancer cells) of the same molecule?
Answer: The value was “increased gene response”.

Question: What about the “Levels of HSPA1A, HSPA1B, HSPA4 (=hsp70), CSF2, SCYA4 (MIP1B), ANXA5, casp10, casp8, ERCC5, TNFSF6 (FasL)” value (MCF7 breast cancer cells) of the same molecule?
Answer: Its value is “increases levels”.
